{
  "source": "ChEMBL document CHEMBL3044732",
  "about": "“Pyrazolecarboxylic acid derivative induces systemic acquired resistance in tobacco” (2003)",
  "key": {"Nicotiana tabacum [1]": {"system": "Nicotiana tabacum", "experiment": "Induction of systemic acquired resistance against Oidium in Nicotiana tabacum cv. Xanthi nc (tobacco) assessed as decrease in lesion size applied as soil-drench 5 days prior to infection measured after 5 days", "format": "functional, organism-based"}, "Nicotiana tabacum [2]": {"system": "Nicotiana tabacum", "experiment": "Induction of N-gene mediated systemic acquired resistance against TMV in Nicotiana tabacum cv. Xanthi nc (tobacco) assessed as decrease in lesion size at 0.1 mg/pot applied by soil-drench 5 days prior to infection measured after 5 days relative to control", "format": "functional, organism-based"}, "[3]": {"system": "Pseudomonas amygdali pv. tabaci", "experiment": "Antibacterial activity against Pseudomonas syringae pv. tabaci up to 500 ug/ml", "format": "functional, organism-based"}, "Nicotiana tabacum [4]": {"system": "Nicotiana tabacum", "experiment": "Induction of systemic acquired resistance against Pseudomonas syringae pv. tabaci in Nicotiana tabacum cv. Xanthi nc (tobacco) assessed as decrease in Nicotiana tabacum (tobacco) wildfire disease symptoms at 1 to 2 mg/pot applied as soil-drench 5 days prior to infection measured after 3 days relative to control", "format": "functional, organism-based"}, "Nicotiana tabacum [5]": {"system": "Nicotiana tabacum", "experiment": "Induction of N-gene mediated systemic acquired resistance against TMV in Nicotiana tabacum cv. Xanthi nc (tobacco) assessed as lesion size at 0.1 mg/pot applied by soil-drench 5 days prior to infection measured after 5 days relative to control", "format": "functional"}, "Nicotiana tabacum [6]": {"system": "Nicotiana tabacum", "experiment": "(§1) Induction of systemic acquired resistance against Pseudomonas syringae pv. tabaci in Nicotiana tabacum cv. Xanthi nc (tobacco) assessed as inhibition of bacterial growth in infected tissues at 1 to 2 mg/pot applied as soil-drench 5 days prior to infection measured after 3 days relative to control", "format": "functional, organism-based"}, "Nicotiana tabacum [7]": {"system": "Nicotiana tabacum", "experiment": "Induction of N-gene mediated systemic acquired resistance against TMV in Nicotiana tabacum cv. Xanthi nc (tobacco) assessed as lesion size at 10 mg/pot applied by soil-drench 5 days prior to infection measured after 5 days relative to control", "format": "functional"}, "Nicotiana tabacum [8]": {"system": "Nicotiana tabacum", "experiment": "Induction of N-gene mediated systemic acquired resistance against TMV in Nicotiana tabacum cv. Xanthi nc (tobacco) assessed as lesion size at 1 mg/pot applied by soil-drench 5 days prior to infection measured after 5 days relative to control", "format": "functional"}, "Nicotiana tabacum [9]": {"system": "Nicotiana tabacum", "experiment": "Induction of systemic acquired resistance in Nicotiana tabacum cv. Xanthi nc (tobacco) assessed as effect on total salicylic acid level in leaves at 1 mg/pot applied as soil-drench measured up to 7 days by fluorometric analysis relative to control", "format": "functional, organism-based"}, "Nicotiana tabacum [10]": {"system": "Nicotiana tabacum", "experiment": "Induction of systemic acquired resistance in Nicotiana tabacum cv. Xanthi nc (tobacco) assessed as effect on free salicylic acid level in leaves at 1 mg/pot applied as soil-drench measured up to 7 days by fluorometric analysis relative to control", "format": "functional, organism-based"}, "Nicotiana tabacum [11]": {"system": "Nicotiana tabacum", "experiment": "Induction of systemic acquired resistance in transgenic Nicotiana tabacum cv. Xanthi nc (tobacco) expressing bacterial NahG assessed as increase in PR1 mRNA level at 0.01 to 0.5 mg/ml applied as foliar spray measured after 4 days by Northern blot analysis relative to control", "format": "functional, organism-based"}, "Nicotiana tabacum [12]": {"system": "Nicotiana tabacum", "experiment": "Induction of systemic acquired resistance in transgenic Nicotiana tabacum cv. Xanthi nc (tobacco) expressing bacterial NahG assessed as increase in PR1 mRNA level at 1 to 2 mg/pot applied as soil-drench measured after 4 days by Northern blot analysis relative to control", "format": "functional, organism-based"}, "Nicotiana tabacum [13]": {"system": "Nicotiana tabacum", "experiment": "as §1, with “tabaci in transgenic Nicotiana tabacum” for “tabaci in Nicotiana tabacum”, “nc (tobacco) expressing bacterial NahG assessed as” for “nc (tobacco) assessed as”", "format": "functional, organism-based"}, "Nicotiana tabacum [14]": {"system": "Nicotiana tabacum", "experiment": "Induction of N-gene mediated systemic acquired resistance against TMV in transgenic Nicotiana tabacum cv. Xanthi nc (tobacco) expressing bacterial NahG assessed as decrease in lesion size at 0.1 to 2 mg/pot applied by soil-drench 5 days prior to infection measured after 5 days relative to control", "format": "functional, organism-based"}, "Nicotiana tabacum [15]": {"system": "Nicotiana tabacum", "experiment": "Induction of systemic acquired resistance in Nicotiana tabacum cv. Xanthi nc (tobacco) assessed as increase in PR5 mRNA level at 0.01 to 0.5 mg/ml applied as foliar spray measured after 4 days by Northern blot analysis relative to control", "format": "functional, organism-based"}, "Nicotiana tabacum [16]": {"system": "Nicotiana tabacum", "experiment": "Induction of systemic acquired resistance in Nicotiana tabacum cv. Xanthi nc (tobacco) assessed as increase in PR2 mRNA level at 0.01 to 0.5 mg/ml applied as foliar spray measured after 4 days by Northern blot analysis relative to control", "format": "functional, organism-based"}, "Nicotiana tabacum [17]": {"system": "Nicotiana tabacum", "experiment": "Induction of systemic acquired resistance in Nicotiana tabacum cv. Xanthi nc (tobacco) assessed as increase in PR1 mRNA level at 0.01 to 0.5 mg/ml applied as foliar spray measured after 4 days by Northern blot analysis relative to control", "format": "functional, organism-based"}, "Nicotiana tabacum [18]": {"system": "Nicotiana tabacum", "experiment": "Induction of systemic acquired resistance in Nicotiana tabacum cv. Xanthi nc (tobacco) assessed as increase in PR1 mRNA level at 1 mg/pot applied as soil-drench measured after 24 hr by Northern blot analysis relative to control", "format": "functional, organism-based"}, "Nicotiana tabacum [19]": {"system": "Nicotiana tabacum", "experiment": "Induction of systemic acquired resistance in Nicotiana tabacum cv. Xanthi nc (tobacco) assessed as increase in PR5 mRNA level at 1 to 2 mg/pot applied as soil-drench measured after 4 days by Northern blot analysis relative to control", "format": "functional, organism-based"}, "Nicotiana tabacum [20]": {"system": "Nicotiana tabacum", "experiment": "Induction of systemic acquired resistance in Nicotiana tabacum cv. Xanthi nc (tobacco) assessed as increase in PR2 mRNA level at 1 to 2 mg/pot applied as soil-drench measured after 4 days by Northern blot analysis relative to control", "format": "functional, organism-based"}, "Nicotiana tabacum [21]": {"system": "Nicotiana tabacum", "experiment": "Induction of systemic acquired resistance in Nicotiana tabacum cv. Xanthi nc (tobacco) assessed as increase in PR1 mRNA level at 1 to 2 mg/pot applied as soil-drench measured after 4 days by Northern blot analysis relative to control", "format": "functional, organism-based"}},
  "note": "Calls of active or inactive are those of the source. The rule behind the calls is not given here.",
  "data": [
    {"smiles": "CSC(=O)c1cccc2nnsc12", "values": [
      {"measurement": "Activity", "setting": "Nicotiana tabacum [1]", "result": "Dose-dependent effect"},
      {"measurement": "Activity", "setting": "Nicotiana tabacum [2]", "result": "Active"}
    ]},
    {"smiles": "Cn1nc(Cl)cc1C(=O)O", "note": "[3-CHLORO-1-METHYL-1H-PYRAZOLE-5-CARBOXYLIC ACID]", "values": [
      {"measurement": "Activity", "setting": "Nicotiana tabacum [1]", "result": "Dose-dependent effect"},
      {"measurement": "Activity", "setting": "[3]", "result": "inactive"},
      {"measurement": "Activity", "setting": "Nicotiana tabacum [4]", "result": "Active"},
      {"measurement": "Activity", "setting": "Nicotiana tabacum [5]", "result": 50, "unit": "%"},
      {"measurement": "Activity", "setting": "Nicotiana tabacum [6]", "result": "Active"},
      {"measurement": "Activity", "setting": "Nicotiana tabacum [7]", "result": "<10", "unit": "%"},
      {"measurement": "Activity", "setting": "Nicotiana tabacum [8]", "result": "<10", "unit": "%"},
      {"measurement": "Activity", "setting": "Nicotiana tabacum [9]", "result": "inactive"},
      {"measurement": "Activity", "setting": "Nicotiana tabacum [10]", "result": "inactive"},
      {"measurement": "Activity", "setting": "Nicotiana tabacum [11]", "result": "Active"},
      {"measurement": "Activity", "setting": "Nicotiana tabacum [12]", "result": "Active"},
      {"measurement": "Activity", "setting": "Nicotiana tabacum [13]", "result": "Active"},
      {"measurement": "Activity", "setting": "Nicotiana tabacum [14]", "result": "Active"},
      {"measurement": "Activity", "setting": "Nicotiana tabacum [15]", "result": "Active"},
      {"measurement": "Activity", "setting": "Nicotiana tabacum [16]", "result": "Active"},
      {"measurement": "Activity", "setting": "Nicotiana tabacum [17]", "result": "Active"},
      {"measurement": "Activity", "setting": "Nicotiana tabacum [18]", "result": "Active"},
      {"measurement": "Activity", "setting": "Nicotiana tabacum [19]", "result": "Active"},
      {"measurement": "Activity", "setting": "Nicotiana tabacum [20]", "result": "Active"},
      {"measurement": "Activity", "setting": "Nicotiana tabacum [21]", "result": "Active"}
    ]}
  ]
}
